The source of these data is patent publication US11957687B2 (REGENERON PHARMACEUTICALS, INC., priority 2019, dated 2024).

The nature of data set [1]: Microsome stability assay, human liver microsomes. Conditions: 1 μM compound, 0.5 mg/mL microsomal protein; for microsomal CLint at 1 h, 1 µM / half-life at 1 h, 1 µM / microsomal CLint at 1 μM / half-life at 1 μM: human, human liver microsomes, pooled, NADPH, 37° C.; for microsomal CLint at 1 h, 1 µM / microsomal CLint at 1 μM: read-out: Microsome Stability Human liver microsomes Cl; for half-life at 1 h, 1 µM / half-life at 1 μM: read-out: Microsome Stability Human liver microsomes T½. Type of data set: in vitro ADME. As to the method:
(§1) Compounds of the disclosure were screened in microsome stability assays. For the screen, test compounds were incubated at 37° C. with either human liver microsomes (Corning; #452117) or mouse liver microsomes (XenoTech; #M1000), pooled from multiple donors, at 1 μM in the presence of a NADPH regenerating system at 0.5 mg/mL microsomal protein. Positive controls included in the assay were testosterone (3A4 substrate), propafenone (2D6) and diclofenac (2C9). Samples were removed at different time points (0, 5, 10, 20, 30 and 60 minutes) and immediately mixed with cold acetonitrile containing internal standard (IS, 200 ng/mL tolbutamide and 200 ng/mL labetalol). Test compounds incubated with microsomes for 60 minutes without the NADPH regenerating system was also included. A single point for each test condition (n=1) was obtained, and samples were analyzed by LC/MS/MS. Disappearance of the test compound was assessed based on peak area ratios of analyte/IS (no standard curve).

A further data set deals with HSD17B13 (Homo sapiens (Human), UniProt Q7Z5P4). In words: HSD17B13 enzymatic inhibition assay (150 nM or 50 nM HSD17B13). Type of data set: biochemical.
Chain of HSD17B13 (Q7Z5P4 other isoform, or with tags, fused parts or gaps): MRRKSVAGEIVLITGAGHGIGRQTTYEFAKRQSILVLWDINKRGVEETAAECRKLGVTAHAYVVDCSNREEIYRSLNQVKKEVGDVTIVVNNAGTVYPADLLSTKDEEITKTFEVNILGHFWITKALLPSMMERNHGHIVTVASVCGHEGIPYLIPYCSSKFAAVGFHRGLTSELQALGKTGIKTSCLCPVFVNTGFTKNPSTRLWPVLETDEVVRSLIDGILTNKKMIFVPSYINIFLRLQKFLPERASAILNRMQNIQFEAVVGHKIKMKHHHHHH
Data set [2] can be described thus: Microsome stability assay, mouse liver microsomes. The note with it: 1 μM compound, 0.5 mg/mL microsomal protein; for microsomal CLint at 1 h, 1 µM / half-life at 1 h, 1 µM: mouse, mouse liver microsomes, pooled, NADPH, 37° C.; for microsomal CLint at 1 h, 1 µM: read-out: Microsome Stability Mouse liver microsomes Cl; for half-life at 1 h, 1 µM: read-out: Microsome Stability Mouse liver microsomes T½. The class given is in vitro ADME. The method, then: as §1

[3] abbreviates: 50 nM HSD17B13, read-out: Inhibition of 50 nM of HSD17B13 IC50.
[4] abbreviates: 150 nM HSD17B13, read-out: Inhibition of 150 nM of HSD17B13 IC50.

Like-named read-outs stand apart in the source and are kept apart here. Where only a bound is given, the exact number is not on record here.

Regarding `O=C(NC(c1ccccc1)c1ccccc1)c1ccc(C(F)(F)F)[nH]c1=O` [Compound 1, N-benzhydryl-2-oxo-6-(trifluoromethyl)-1,2-dihydropyridine-3-carboxamide], in data set [1], the “Microsome Stability Human liver microsomes % Remaining @60 min” value is on record as 66.90%; the microsomal CLint at 1 h, 1 µM was found to be 13.4 µL/min/mg; the half-life at 1 h, 1 µM amounted to 103 min. The IC50 on HSD17B13 (setting [3]) came out at 1.75 µM. In data set [2], the “Microsome Stability Mouse liver microsomes % Remaining @60 min” value is reported as 29.00%; the microsomal CLint at 1 h, 1 µM is 42.4 µL/min/mg; the half-life at 1 h, 1 µM is 32.7 min.
With `Cc1ccc(C(NC(=O)c2ccc(C(F)(F)F)[nH]c2=O)c2ccccc2)cc1C` (stereo not drawn) [Compound 2A, N-((3,4-dimethylphenyl)(phenyl)methyl)-2-oxo-6-(trifluoromethyl)-1,2-dihydropyridine-3-carboxamide], in data set [1], the “Microsome Stability Human liver microsomes % Remaining @60 min” value came out at 0.10%; the microsomal CLint at 1 h, 1 µM turned out to be 515 µL/min/mg; the half-life at 1 h, 1 µM stood at 2.7 min. The IC50 on HSD17B13 (setting [3]) is 0.28 µM. Further, at HSD17B13 (setting [4]), the IC50 came to 1.57 µM.
`O=C(NC(c1ccccc1)c1ccc2c(c1)OCO2)c1ccc(C(F)(F)F)[nH]c1=O` (stereo not drawn) [Compound 3, N-(benzo[d][1,3]dioxol-5-yl(phenyl)methyl)-2-oxo-6-(trifluoromethyl)-1,2-dihydropyridine-3-carboxamide]: in data set [1], the “Microsome Stability Human liver microsomes % Remaining @60 min” value came to 1.00%; the microsomal CLint at 1 h, 1 µM came out at 217 µL/min/mg; the half-life at 1 h, 1 µM turned out to be 6.39 min. Further, the IC50 on HSD17B13 (setting [4]) stood at 1.31 µM.
For `O=C(NC(c1ccccc1)c1cccc(C(F)(F)F)c1)c1ccc(C(F)(F)F)[nH]c1=O` (stereo not drawn) [Compound 7, 2-oxo-N-(phenyl(3-(trifluoromethyl)phenyl)methyl)-6-(trifluoromethyl)-1,2-dihydropyridine-3-carboxamide], in data set [1], the “Microsome Stability Human liver microsomes % Remaining @60 min” value is given as 101.00%, the microsomal CLint at 1 μM was less than 9.6 µL/min/mg and the half-life at 1 μM is greater than 145 min. Also, the 50% inhibitory concentration (IC50) at HSD17B13 (setting [3]) was 3.09 µM.
For `CS(=O)(=O)Nc1ccc(C(NC(=O)c2ccc(C(F)(F)F)[nH]c2=O)c2ccccc2)cc1` (stereo not drawn) [Compound 7A, N-((4-(methylsulfonamido)phenyl)(phenyl)methyl)-2-oxo-6-(trifluoromethyl)-1,2-dihydropyridine-3-carboxamide], in that order: 93.90%, less than 9.6 µL/min/mg, greater than 145 min and 1.1 µM.
Consider `CC(C)Cc1ccc(C(NC(=O)c2ccc(C(F)(F)F)[nH]c2=O)c2ccccc2)cc1` (stereo not drawn) [Compound 13, N-((4-isobutylphenyl)(phenyl)methyl)-2-oxo-6-(trifluoromethyl)-1,2-dihydropyridine-3-carboxamide], for which, in data set [1], the “Microsome Stability Human liver microsomes % Remaining @60 min” value was determined as 1.44%; the microsomal CLint at 1 h, 1 µM stood at 138 µL/min/mg; the half-life at 1 h, 1 µM is 10.1 min. For the same compound, at HSD17B13 (setting [3]), the IC50 is 0.94 µM.
As to `O=C(NC(c1ccccc1)c1ccc(Oc2ccccc2)cc1)c1ccc(C(F)(F)F)[nH]c1=O` (stereo not drawn) [Compound 16, N-((4-phenoxyphenyl)(phenyl)methyl)-2-oxo-6-(trifluoromethyl)-1,2-dihydropyridine-3-carboxamide], in data set [1], the “Microsome Stability Human liver microsomes % Remaining @60 min” value is 23.30%, the microsomal CLint at 1 μM worked out at 45.2 µL/min/mg and the half-life at 1 μM turned out to be 30.7 min. Further, at HSD17B13 (setting [3]), the concentration for half-maximal inhibition (IC50) is 0.97 µM.
Take `O=C(NC(c1ccccc1)c1cccc(O)c1)c1ccc(C(F)(F)F)[nH]c1=O` (stereo not drawn) [Compound 18, N-((3-hydroxyphenyl)(phenyl)methyl)-2-oxo-6-(trifluoromethyl)-1,2-dihydropyridine-3-carboxamide]: in data set [1], the “Microsome Stability Human liver microsomes % Remaining @60 min” value was found to be 36.60%; the microsomal CLint at 1 h, 1 µM amounted to 33 µL/min/mg; the half-life at 1 h, 1 µM is 42 min. The IC50 at HSD17B13 (setting [3]) was 2.48 µM.
As for `O=C(NC(c1ccccc1)c1ccccc1O)c1ccc(C(F)(F)F)[nH]c1=O` (stereo not drawn) [Compound 35, N-((2-hydroxyphenyl)(phenyl)methyl)-2-oxo-6-(trifluoromethyl)-1,2-dihydropyridine-3-carboxamide], in data set [1], the “Microsome Stability Human liver microsomes % Remaining @60 min” value is on record as 14.90%; the microsomal CLint at 1 h, 1 µM was found to be 63.4 µL/min/mg; the half-life at 1 h, 1 µM was 21.9 min. In addition, on HSD17B13 (setting [4]), the IC50 worked out at 2.78 µM.
Take `CCCc1ccc(C(NC(=O)c2ccc(C(F)(F)F)[nH]c2=O)c2ccccc2)cc1` (stereo not drawn) [Compound 36, 2-oxo-N-(phenyl(4-propylphenyl)methyl)-6-(trifluoromethyl)-1,2-dihydropyridine-3-carboxamide]: in data set [1], the “Microsome Stability Human liver microsomes % Remaining @60 min” value came out at 2.00%; the microsomal CLint at 1 h, 1 µM turned out to be 126 µL/min/mg; the half-life at 1 h, 1 µM was determined as 11 min. Besides, on HSD17B13 (setting [3]), the IC50 is 0.68 µM.
As for `CC(C)c1ccc(C(NC(=O)c2ccc(C(F)(F)F)[nH]c2=O)c2ccccc2)cc1` (stereo not drawn) [Compound 37, N-((4-isopropylphenyl)(phenyl)methyl)-2-oxo-6-(trifluoromethyl)-1,2-dihydropyridine-3-carboxamide], in data set [1], the “Microsome Stability Human liver microsomes % Remaining @60 min” value turned out to be 5.70%; the microsomal CLint at 1 h, 1 µM was found to be 92.4 µL/min/mg; the half-life at 1 h, 1 µM is 15 min. Besides, at HSD17B13 (setting [3]), the IC50 is 0.78 µM.
On to `Cc1ccc(C(=O)NC(c2ccccc2)c2ccccc2O)c(=O)[nH]1` (stereo not drawn) [Compound 65, N-((2-hydroxyphenyl)(phenyl)methyl)-6-methyl-2-oxo-1,2-dihydropyridine-3-carboxamide], for which, in data set [1], the “Microsome Stability Human liver microsomes % Remaining @60 min” value was 50.10%; the microsomal CLint at 1 h, 1 µM is 118 µL/min/mg; the half-life at 1 μM was determined as 11.8 min. Also, the IC50 on HSD17B13 (setting [4]) was greater than 30 µM.
As to `COc1ccc2c(c1)CCC2NC(=O)c1ccc(C(F)(F)F)[nH]c1=O` (stereo not drawn) [Compound 134, N-(5-methoxy-2,3-dihydro-1H-inden-1-yl)-2-oxo-6-(trifluoromethyl)-1,2-dihydropyridine-3-carboxamide], in data set [1], the “Microsome Stability Human liver microsomes % Remaining @60 min” value amounted to 0.27%; the microsomal CLint at 1 h, 1 µM turned out to be 410 µL/min/mg; the half-life at 1 h, 1 µM is 3.38 min. In addition, on HSD17B13 (setting [3]), the concentration for half-maximal inhibition (IC50) is 1.41 µM.
For `Cc1ccc(CNC(=O)c2ccc(C(F)(F)F)[nH]c2=O)cc1` [Compound 215, N-(4-methylbenzyl)-2-oxo-6-(trifluoromethyl)-1,2-dihydropyridine-3-carboxamide], in that order: 1.00%, 414 µL/min/mg, 3.35 min and 2.2 µM.
`COc1ccc2c(c1)CCCC2NC(=O)c1ccc(C(F)(F)F)[nH]c1=O` (stereo not drawn) [Compound 234, N-(6-methoxy-1,2,3,4-tetrahydronaphthalen-1-yl)-2-oxo-6-(trifluoromethyl)-1,2-dihydropyridine-3-carboxamide]: in data set [1], the “Microsome Stability Human liver microsomes % Remaining @60 min” value came out at 1%; the microsomal CLint at 1 h, 1 µM is 369 µL/min/mg; the half-life at 1 h, 1 µM was determined as 3.76 min. The IC50 on HSD17B13 (setting [3]) turned out to be 0.41 µM. In data set [2], the “Microsome Stability Mouse liver microsomes % Remaining @60 min” value worked out at 1%; the microsomal CLint at 1 h, 1 µM was 303 µL/min/mg; the half-life at 1 h, 1 µM was determined as 4.56 min.
As for `Cc1ccc2c(c1)CCCC2NC(=O)c1ccc(C(F)(F)F)[nH]c1=O` (stereo not drawn) [Compound 235, N-(6-methyl-1,2,3,4-tetrahydronaphthalen-1-yl)-2-oxo-6-(trifluoromethyl)-1,2-dihydropyridine-3-carboxamide], in data set [1], the “Microsome Stability Human liver microsomes % Remaining @60 min” value is on record as 1%; the microsomal CLint at 1 h, 1 µM amounted to 547 µL/min/mg; the half-life at 1 h, 1 µM turned out to be 2.53 min. Besides, the IC50 on HSD17B13 (setting [3]) turned out to be 0.2 µM. In addition, in data set [2], the “Microsome Stability Mouse liver microsomes % Remaining @60 min” value was found to be 50%; the microsomal CLint at 1 h, 1 µM worked out at 23.6 µL/min/mg; the half-life at 1 h, 1 µM is 58.7 min.
Turning to `COc1ccc2c(c1)Oc1cc(OC)ccc1C2NC(=O)c1ccc(C(F)F)[nH]c1=O` [Compound 273, 6-(difluoromethyl)-N-(3,6-dimethoxy-9H-xanthen-9-yl)-2-oxo-1,2-dihydropyridine-3-carboxamide], in data set [1], the “Microsome Stability Human liver microsomes % Remaining @60 min” value amounted to 66.40%; the microsomal CLint at 1 h, 1 µM was 13.2 µL/min/mg; the half-life at 1 h, 1 µM amounted to 105 min. In addition, at HSD17B13 (setting [3]), the IC50 was determined as 0.34 µM. In addition, in data set [2], the “Microsome Stability Mouse liver microsomes % Remaining @60 min” value came out at 39%; the microsomal CLint at 1 h, 1 µM amounted to 31 µL/min/mg; the half-life at 1 h, 1 µM is 44.7 min.
Regarding `CCCC1Cc2ccc(C)cc2C1NC(=O)c1ccc(C(F)(F)F)[nH]c1=O` (stereo not drawn) [Compound 291, N-(6-methyl-2-propyl-2,3-dihydro-1H-inden-1-yl)-2-oxo-6-(trifluoromethyl)-1,2-dihydropyridine-3-carboxamide], in data set [1], the “Microsome Stability Human liver microsomes % Remaining @60 min” value was determined as 17.90%; the microsomal CLint at 1 h, 1 µM stood at 54.5 µL/min/mg; the half-life at 1 h, 1 µM came to 25.5 min. In data set [2], the “Microsome Stability Mouse liver microsomes % Remaining @60 min” value is 52.20%; the microsomal CLint at 1 h, 1 µM stood at 21.3 µL/min/mg; the half-life at 1 h, 1 µM turned out to be 65 min.
